Source: ChEMBL document CHEMBL2401733 (Bioorg Med Chem Lett, 2013)
pIC50: −log10 of the molar value. ≈ marks a conversion by molar mass, not a printed value.

Columns and labels:
[1] = Metabolic stability in human liver microsomes assessed as compound remaining at 1 uM after 30 mins; assay type: ADME, Microsome; details: read-out: Stability
[2] = Metabolic stability in rat liver microsomes assessed as compound remaining at 1 uM after 30 mins; assay type: ADME, Microsome; details: read-out: Stability
[3] = Lipophilicity, log P of the compound; assay type: physicochemical; details: octanol/water
[4] = Metabolic stability in mouse liver microsomes assessed as compound remaining at 1 uM after 30 mins; assay type: ADME, Microsome; details: read-out: Stability
[5] = target: T1, Serine/threonine-protein kinase PLK2 (Homo sapiens, UniProt Q9NYY3)
T1 sequence (Q9NYY3 whole entry): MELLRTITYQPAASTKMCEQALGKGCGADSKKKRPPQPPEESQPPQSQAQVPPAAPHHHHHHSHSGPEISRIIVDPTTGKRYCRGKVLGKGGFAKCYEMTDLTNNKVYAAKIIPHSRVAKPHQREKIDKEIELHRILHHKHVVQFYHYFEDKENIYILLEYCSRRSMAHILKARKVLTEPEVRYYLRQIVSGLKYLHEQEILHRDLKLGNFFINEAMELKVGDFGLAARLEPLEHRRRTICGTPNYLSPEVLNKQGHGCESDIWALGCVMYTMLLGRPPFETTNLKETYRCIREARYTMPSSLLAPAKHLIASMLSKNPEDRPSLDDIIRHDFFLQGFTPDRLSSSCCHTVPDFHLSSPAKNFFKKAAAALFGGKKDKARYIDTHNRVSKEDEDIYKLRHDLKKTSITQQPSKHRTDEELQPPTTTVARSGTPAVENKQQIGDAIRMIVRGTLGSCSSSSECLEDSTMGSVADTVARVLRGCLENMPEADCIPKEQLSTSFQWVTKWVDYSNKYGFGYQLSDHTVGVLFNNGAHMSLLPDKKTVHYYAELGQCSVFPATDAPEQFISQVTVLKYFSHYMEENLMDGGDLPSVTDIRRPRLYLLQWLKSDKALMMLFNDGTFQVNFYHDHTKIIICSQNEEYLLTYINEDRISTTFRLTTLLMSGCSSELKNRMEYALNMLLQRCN
Description: Inhibition of GST-tagged Plk2 (unknown origin) assessed as inhibition of DEKTDDED phosphorylation at Thr1342 after 60 mins by TR-FRET assay

[6] = Apparent permeability across apical to basolateral side in […] MDCK2 cells at 5 uM after 120 mins by LC/MS/MS analysis; assay type: ADME, cell-based, MDCK-II; details: MDCK
[7] = target: Serine/threonine-protein kinase PLK1 (Homo sapiens, UniProt P53350); assay: Inhibition of GST-tagged Plk1 (unknown origin) assessed as inhibition of DEKTDDED phosphorylation at Thr1342 after 60 mins by TR-FRET assay
Serine/threonine-protein kinase PLK1, sequence (P53350 whole entry): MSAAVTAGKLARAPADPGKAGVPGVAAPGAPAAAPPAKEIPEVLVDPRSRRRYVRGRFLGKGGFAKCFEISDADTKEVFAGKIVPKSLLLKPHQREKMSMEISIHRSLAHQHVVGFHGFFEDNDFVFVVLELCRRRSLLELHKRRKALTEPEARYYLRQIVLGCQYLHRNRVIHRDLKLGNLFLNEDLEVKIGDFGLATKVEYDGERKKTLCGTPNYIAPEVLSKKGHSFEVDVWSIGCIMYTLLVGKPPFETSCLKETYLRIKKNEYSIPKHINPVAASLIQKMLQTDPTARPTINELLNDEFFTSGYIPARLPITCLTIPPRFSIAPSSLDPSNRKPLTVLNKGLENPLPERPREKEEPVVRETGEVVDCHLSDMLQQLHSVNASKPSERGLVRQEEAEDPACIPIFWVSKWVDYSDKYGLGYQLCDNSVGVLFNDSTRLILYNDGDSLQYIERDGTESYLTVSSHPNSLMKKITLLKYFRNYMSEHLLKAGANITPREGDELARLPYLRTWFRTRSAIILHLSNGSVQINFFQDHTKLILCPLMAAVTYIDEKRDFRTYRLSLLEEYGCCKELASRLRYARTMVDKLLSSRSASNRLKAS

[8] = Solubility of the compound; assay type: physicochemical
[9] = target: T1, Serine/threonine-protein kinase PLK2; remark: listed apart in the source
Rattus norvegicus = assay: Inhibition of Plk2-mediated phosphorylation of alpha-synuclein at Ser129 in Sprague-Dawley rat cerebral cortex at 100 to 200 mg/kg, po measured at 6 hrs by ELISA relative to control; assay type: functional; details: dose mg/kg 100-200
[10] = Ratio of drug level from brain to plasma in Sprague-Dawley rat at 200 mg/kg, po measured at 6 hrs; assay type: ADME, organism-based; set-up: dose 200 mg/kg, route oral; details: brain and plasma, read-out: BPR
[11] = Ratio of drug level from brain to plasma in Sprague-Dawley rat at 100 mg/kg, po measured at 6 hrs; assay type: ADME, organism-based; set-up: dose 100 mg/kg, route oral; details: brain and plasma, read-out: BPR
[12] = Drug uptake in Sprague-Dawley rat brain at 100 mg/kg, po measured at 6 hrs; assay type: ADME, organism-based; set-up: dose 100 mg/kg, route oral; details: read-out: Drug uptake
[13] = Drug uptake in Sprague-Dawley rat brain at 200 mg/kg, po measured at 6 hrs; assay type: ADME, organism-based; set-up: dose 200 mg/kg, route oral; details: read-out: Drug uptake
[14] = Plasma concentration in Sprague-Dawley rat at 200 mg/kg, po measured at 6 hrs; assay type: ADME, organism-based; set-up: dose 200 mg/kg, route oral
[15] = Plasma concentration in Sprague-Dawley rat at 100 mg/kg, po measured at 6 hrs; assay type: ADME, organism-based; set-up: dose 100 mg/kg, route oral
MDR1 = assay: Efflux ratio of permeability across apical to basolateral side in […] MDCK cells expressing MDR1 at 5 uM after 120 mins by LC/MS/MS analysis; assay type: ADME, cell-based

Row | remaining at 0.5 h, 1 µM [1] | remaining at 0.5 h, 1 µM [2] | logP ([3]; read-out: logP) | remaining at 0.5 h, 1 µM [4] | pIC50 [5] | Papp A→B at 2 h, 5 µM [6] | Compound | also measured
1 | 21% | 5% | 3.3 | 28% | 7.77 | – | CCC1C(=O)N(C)c2cnc(-n3ccnc3-c3ccccc3)nc2N1c1ccccc1 (racemic) | –
2 | 69% | 86% | 2 | 50% | – | 21.2 ×10⁻⁶ cm/s | CC[C@@H]1C(=O)N(C)c2cnc(-n3ccnc3-c3ccc(F)cc3)nc2N1c1cnn(C)c1 | –
3 | 74% | 80% | 1.9 | 72% | – | – | CC[C@@H]1C(=O)N(C)c2cnc(-n3ccnc3-c3ccc(F)cc3)nc2N1c1ccnn1C | –
4 | 74% | 80% | 1.6 | 74% | 5.98 | – | CC[C@@H]1C(=O)N(C)c2cnc(-n3ccnc3-c3ccc(F)cc3)nc2N1C1COC1 | pIC50 [7]: < 4.30
5 | 47% | 11% | 3.4 | 41% | – | – | CCC1C(=O)N(C)c2cnc(-n3ccnc3-c3ccc(F)cc3)nc2N1c1ccc(F)cc1 (racemic) | –
6 | 72% | 65% | 2.2 | 67% | 8.05 | 13.2 ×10⁻⁶ cm/s | CCC1C(=O)N(C)c2cnc(-n3ccnc3-c3ccc(F)cc3)nc2N1c1cc[nH]n1 (racemic) | pIC50 [9]: 6.13
7 | 73% | 82% | 1.8 | 66% | – | 8.7 ×10⁻⁶ cm/s | CC[C@@H]1C(=O)N(C)c2cnc(-n3ccnc3-c3ccc(F)cc3)nc2N1c1cn[nH]c1 | –
8 | 63% | 26% | 2.4 | 25% | 8.15 | 18.5 ×10⁻⁶ cm/s | CC[C@@H]1C(=O)N(C)c2cnc(-n3ccnc3-c3ccc(F)cc3)nc2N1c1ccn(C)n1 | inhibition (INH) (Rattus norvegicus): 41%; Kp at 6 h [10]: 0.28; Kp at 6 h [11]: 0.36; concentration at 6 h [12]: 5.2 µM; concentration at 6 h [13]: 3.2 µM; concentration at 6 h [14]: 4880 ng/mL; concentration at 6 h [15]: 6290 ng/mL; efflux ratio at 2 h, 5 µM (MDR1): 1.1; pIC50 [7]: 5.87; pIC50 [9]: 6.32
9 | 63% | 48% | 2.7 | 49% | 7.51 | – | CCC1C(=O)N(C)c2cnc(-n3ccnc3-c3ccc(F)cc3)nc2N1c1ccc(C#N)cc1 (racemic) | –
10 | 27% | 30% | 3.1 | 32% | – | 15.8 ×10⁻⁶ cm/s | CC[C@@H]1C(=O)N(C)c2cnc(-n3ccnc3-c3ccc(F)cc3)nc2N1CCC(F)(F)F | –

The remaining lines, values behind:

Row | Compound | remaining at 0.5 h, 1 µM [1] | remaining at 0.5 h, 1 µM [2] | logP ([3]; read-out: logP) | remaining at 0.5 h, 1 µM [4] | pIC50 [5] | Papp A→B at 2 h, 5 µM [6] | also measured
11 | CC[C@@H]1C(=O)N(C)c2cnc(-n3ccnc3-c3ccccc3)nc2N1CCC(F)(F)F | 0% | 0% | 3.1 | 2% | – | – | –
12 | CC[C@@H]1C(=O)N(C)c2cnc(-n3ccnc3-c3ccccc3)nc2N1c1cncnc1 | 55% | 76% | 1.3 | 60% | 7.36 | – | –
13 | CC(C)N1c2nc(-n3ccnc3-c3ccc(F)cc3)ncc2N(C)C(=O)C1(C)C | 54% | 10% | – | 25% | 5.57 | – | pIC50 [7]: < 4.00
14 | CC[C@@H]1C(=O)N(C)c2cnc(-n3ccnc3-c3ccccc3)nc2N1C1CCCC1 | 0% | 0% | – | 0% | 8.30 | 11.4 ×10⁻⁶ cm/s | solubility [8]: 100 µM (≈ 40.3 µg/mL)
15 | CC[C@@H]1C(=O)N(C)c2cnc(-n3ccnc3-c3ccccc3)nc2N1[C@H]1CCOC1 | 17% | 13% | 1.9 | 51% | – | – | –
16 | CC[C@@H]1C(=O)N(C)c2cnc(-c3cn[nH]c3-c3nccs3)nc2N1c1cn[nH]c1 | 84% | 48% | – | 57% | – | 6.6 ×10⁻⁶ cm/s | –
17 | CN1C(=O)C(CC(F)(F)F)N(CCC(F)(F)F)c2nc(-n3ccnc3-c3ccc(F)cc3)ncc21 (racemic) | 15% | 30% | – | 42% | – | – | –
18 | CCC1C(=O)N(C)c2cnc(-c3cn[nH]c3-c3nccs3)nc2N1c1cnn(C)c1 (racemic) | – | – | – | – | 6.89 | – | –
19 | CC[C@@H]1C(=O)N(C)c2cnc(-n3ccnc3-c3ccccc3)nc2N1C(C)C | 14% | 0% | – | 12% | – | – | logP [3]: Not Active
20 | CCC1(C)C(=O)N(C)c2cnc(-n3ccnc3-c3ccc(F)cc3)nc2N1CCC(F)(F)F (racemic) | 17% | 34% | – | 29% | – | – | –
21 | CC[C@@H]1C(=O)N(C)c2cnc(-c3cn[nH]c3-c3nccs3)nc2N1C1CCOCC1 | 47% | 39% | – | 44% | – | 18.9 ×10⁻⁶ cm/s | –
22 | CC[C@@H]1C(=O)N(C)c2cnc(-c3c[nH]nc3-c3ccc(F)cc3F)nc2N1c1cnn(C)c1 | 48% | 13% | – | 5% | 6.99 | – | –
23 | CC[C@@H]1C(=O)N(C)c2cnc(-n3ccnc3-c3ccccc3)nc2N1[C@@H]1CCOC1 | 10% | 0% | 1.8 | 27% | – | – | –
24 | CCC1C(=O)N(C)c2cnc(-n3ccnc3-c3ccccc3)nc2N1c1cncnc1 (racemic) | – | – | – | – | – | 12.2 ×10⁻⁶ cm/s | pIC50 [9]: 5.41
25 | CCC1C(=O)N(C)c2cnc(-n3ccnc3-c3ccc(F)cc3)nc2N1C1CCC(F)(F)C1 (racemic) | 6% | 8% | 3.1 | 15% | – | – | –
26 | CC[C@@H]1C(=O)N(C)c2cnc(-c3c[nH]nc3-c3nccs3)nc2N1[C@H]1CCOC1 | 51% | 39% | – | 47% | 7.41 | 16.8 ×10⁻⁶ cm/s | pIC50 [9]: 5.50
27 | CC(C)N1c2nc(-n3ccnc3-c3ccc(F)cc3)ncc2N(C)C(=O)C12CCC2 | 4% | 1% | – | 7% | – | – | –
28 | CC[C@@H]1C(=O)N(C)c2cnc(-n3ccnc3-c3ccc(F)cc3)nc2N1[C@H]1CCOC1 | 58% | 67% | 2 | 63% | 7.48 | 23.4 ×10⁻⁶ cm/s | pIC50 [9]: 5.69
29 | CC[C@@H]1C(=O)N(C)c2cnc(-n3ccnc3-c3ccc(F)cc3)nc2N1C1CC(F)(F)C1 | 19% | 14% | 3 | 30% | – | – | –
30 | CC[C@@H]1C(=O)N(C)c2cnc(-c3c[nH]nc3-c3nccs3)nc2N1C(C)C | 38% | 38% | – | 33% | – | 18.3 ×10⁻⁶ cm/s | solubility [8]: 100 µM (≈ 38.3 µg/mL)
31 | CCC1C(=O)N(C)c2cnc(-c3cn[nH]c3-c3ccccn3)nc2N1c1cnn(C)c1 (racemic) | 88% | 87% | – | 64% | 6.77 | 10.1 ×10⁻⁶ cm/s | –
